Assay [1] has as its target T1, Mucosa-associated lymphoid tissue lymphoma translocation protein 1 (Homo sapiens, UniProt Q9UDY8).
T1 sequence (Q9UDY8 whole entry): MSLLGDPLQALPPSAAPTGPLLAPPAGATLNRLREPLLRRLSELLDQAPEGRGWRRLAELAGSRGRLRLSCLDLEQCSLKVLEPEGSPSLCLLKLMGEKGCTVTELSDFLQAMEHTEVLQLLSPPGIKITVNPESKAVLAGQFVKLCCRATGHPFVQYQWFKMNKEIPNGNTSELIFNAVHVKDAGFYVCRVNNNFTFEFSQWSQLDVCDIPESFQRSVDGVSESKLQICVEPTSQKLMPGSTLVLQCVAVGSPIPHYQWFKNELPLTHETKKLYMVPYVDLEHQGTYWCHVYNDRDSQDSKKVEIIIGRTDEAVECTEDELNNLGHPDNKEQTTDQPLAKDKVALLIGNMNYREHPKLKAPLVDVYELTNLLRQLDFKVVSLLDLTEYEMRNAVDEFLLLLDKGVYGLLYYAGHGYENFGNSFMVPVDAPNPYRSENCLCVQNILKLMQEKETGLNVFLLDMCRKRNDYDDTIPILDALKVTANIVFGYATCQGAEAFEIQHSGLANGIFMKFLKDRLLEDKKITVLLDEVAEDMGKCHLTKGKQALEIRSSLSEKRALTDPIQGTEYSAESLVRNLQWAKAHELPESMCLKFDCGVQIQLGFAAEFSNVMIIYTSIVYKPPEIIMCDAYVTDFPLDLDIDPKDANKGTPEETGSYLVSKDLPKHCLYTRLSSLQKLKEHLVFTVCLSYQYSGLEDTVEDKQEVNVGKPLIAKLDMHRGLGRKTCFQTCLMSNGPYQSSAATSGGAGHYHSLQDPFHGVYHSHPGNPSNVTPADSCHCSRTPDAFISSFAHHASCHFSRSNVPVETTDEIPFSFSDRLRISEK
The assay can be described thus: Inhibition of MALT1 (unknown origin) expressed in human Jurkat Clone K22 29Q_H23 cells assessed as IL2 production preincubated for 30 mins followed by PMA stimulation for 5.5 hrs by luciferase reporter gene assay. It counts as cell-based.

Assay [2] concerns the target Baculoviral IAP repeat-containing protein 3/Mucosa-associated lymphoid tissue lymphoma translocation protein 1 (Homo sapiens, UniProt Q13489+Q9UDY8). The assay is described as follows: Inhibition of cIAP2-MALT1 (unknown origin) expressed in HEK293 cells assessed as inhibition of NFkappaB signaling after 24 hrs by luciferase reporter gene assay. It counts as cell-based. In general terms: A reporter such as luciferase makes a cellular process visible.

A word on the IC50: it is the concentration needed to halve the response being measured.

Baculoviral IAP repeat-containing protein 3/Mucosa-associated lymphoid tissue lymphoma translocation protein 1, sequence (Q13489 whole entry, one chain of several): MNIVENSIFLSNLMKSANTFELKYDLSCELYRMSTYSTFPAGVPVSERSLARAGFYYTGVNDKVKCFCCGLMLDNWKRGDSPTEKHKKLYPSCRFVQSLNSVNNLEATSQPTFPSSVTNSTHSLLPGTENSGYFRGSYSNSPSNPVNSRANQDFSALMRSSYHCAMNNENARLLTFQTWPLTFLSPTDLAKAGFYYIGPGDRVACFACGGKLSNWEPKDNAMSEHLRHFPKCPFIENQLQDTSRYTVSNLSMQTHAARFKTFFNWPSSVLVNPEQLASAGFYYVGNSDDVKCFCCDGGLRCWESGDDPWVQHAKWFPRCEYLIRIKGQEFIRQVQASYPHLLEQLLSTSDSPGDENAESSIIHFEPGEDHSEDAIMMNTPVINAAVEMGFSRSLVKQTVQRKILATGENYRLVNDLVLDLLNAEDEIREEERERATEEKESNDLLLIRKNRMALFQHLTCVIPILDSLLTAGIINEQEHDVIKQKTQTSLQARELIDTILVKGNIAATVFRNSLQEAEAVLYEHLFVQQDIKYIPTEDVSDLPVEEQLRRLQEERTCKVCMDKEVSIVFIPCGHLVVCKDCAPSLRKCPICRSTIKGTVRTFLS

`COCC(c1c(NC(=O)Nc2cnc(-n3nccn3)c(Cl)c2)cnc2cc(Cl)nn12)C1CC1` (stereo unspecified): the half-maximal inhibitory concentration (IC50) in assay [1] came out at 28 nM; in assay [2] it was 84 nM.

As to `CC(C)c1c(NC(=O)Nc2cnc(N3CCCS3(=O)=O)c(C(F)(F)F)c2)cnc2cc(Cl)nn12`, the figures for the IC50 in assay [1] and in assay [2] were 248 nM and 54 nM, respectively.

Take `CO[C@@H](C)c1c(NC(=O)Nc2cncc(C(F)(F)F)c2)cnc2cc(C)nn12`: the IC50 turned out to be 52 nM in assay [1] and 132 nM in assay [2].
